{"source": "PubChem BioAssay (NCI)", "assay_in_all_cases": "NCI tumour cell line growth inhibition, 48 h", "key": {"EKVX NSCLC": {"system": "EKVX NSCLC"}, "OVCAR-5 ovarian": {"system": "OVCAR-5 ovarian"}, "OVCAR-8 ovarian": {"system": "OVCAR-8 ovarian"}, "CCRF-CEM leukemia": {"system": "CCRF-CEM leukemia"}, "HOP-92 NSCLC": {"system": "HOP-92 NSCLC"}, "RPMI-8226 leukemia": {"system": "RPMI-8226 leukemia"}, "LOX IMVI melanoma": {"system": "LOX IMVI melanoma"}, "SNB-78 CNS": {"system": "SNB-78 CNS"}, "KM12 colon": {"system": "KM12 colon"}, "A549 NSCLC": {"system": "A549 NSCLC"}, "RXF 393 renal": {"system": "RXF 393 renal"}, "UACC-257 melanoma": {"system": "UACC-257 melanoma"}, "KM20L2 colon": {"system": "KM20L2 colon"}, "NCI-H522 lung": {"system": "NCI-H522 lung"}, "SK-MEL-28 melanoma": {"system": "SK-MEL-28 melanoma"}, "M14 melanoma": {"system": "M14 melanoma"}, "SNB-75 CNS": {"system": "SNB-75 CNS"}, "SF-295 CNS": {"system": "SF-295 CNS"}, "DMS 114 small cell lung": {"system": "DMS 114 small cell lung"}, "SW-620 colon": {"system": "SW-620 colon"}, "SK-OV-3 ovarian": {"system": "SK-OV-3 ovarian"}, "HCT-116 colon": {"system": "HCT-116 colon"}, "UACC-62 melanoma": {"system": "UACC-62 melanoma"}, "SK-MEL-2 melanoma": {"system": "SK-MEL-2 melanoma"}, "K-562 leukemia": {"system": "K-562 leukemia"}, "HOP-62 NSCLC": {"system": "HOP-62 NSCLC"}, "786-0 renal": {"system": "786-0 renal"}, "MALME-3M melanoma": {"system": "MALME-3M melanoma"}, "DMS 273 small cell lung": {"system": "DMS 273 small cell lung"}, "DLD-1 colon": {"system": "DLD-1 colon"}, "HL-60(TB) leukemia": {"system": "HL-60(TB) leukemia"}, "NCI-H226 lung": {"system": "NCI-H226 lung"}, "U251 CNS": {"system": "U251 CNS"}, "SF-268 CNS": {"system": "SF-268 CNS"}, "M19-MEL melanoma": {"system": "M19-MEL melanoma"}, "LXFL 529 NSCLC": {"system": "LXFL 529 NSCLC"}, "SF-539 CNS": {"system": "SF-539 CNS"}, "SK-MEL-5 melanoma": {"system": "SK-MEL-5 melanoma"}, "NCI-H460 lung": {"system": "NCI-H460 lung"}, "MOLT-4 leukemia": {"system": "MOLT-4 leukemia"}, "COLO 205 colon": {"system": "COLO 205 colon"}, "XF 498 CNS": {"system": "XF 498 CNS"}, "IGROV1 ovarian": {"system": "IGROV1 ovarian"}, "OVCAR-3 ovarian": {"system": "OVCAR-3 ovarian"}, "HCC-2998 colon": {"system": "HCC-2998 colon"}, "HT29 colon": {"system": "HT29 colon"}, "UO-31 renal": {"system": "UO-31 renal"}, "NCI-H23 lung": {"system": "NCI-H23 lung"}, "TK-10 renal": {"system": "TK-10 renal"}}, "note": "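Step 1: Grow cells in 96-well plates. Step 2: Expose to compound for 48 hours at 5 concentrations. Step 3: Interpolate endpoints linearly; if unreached, use highest concentration. TGI is the concentration that stops growth completely.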"}
{"smiles": "C/C(CC(=O)Nc1cccc(Cl)c1C)=N\\NC(=O)c1ccncc1", "values": [{"measurement": "TGI", "setting": "EKVX NSCLC", "value": "> 100", "unit": "µM"}, {"measurement": "TGI", "setting": "OVCAR-5 ovarian", "value": "> 100", "unit": "µM"}, {"measurement": "TGI", "setting": "OVCAR-8 ovarian", "value": "> 100", "unit": "µM"}, {"measurement": "TGI", "setting": "CCRF-CEM leukemia", "value": "> 100", "unit": "µM"}, {"measurement": "TGI", "setting": "HOP-92 NSCLC", "value": "> 100", "unit": "µM"}, {"measurement": "TGI", "setting": "RPMI-8226 leukemia", "value": "> 100", "unit": "µM"}, {"measurement": "TGI", "setting": "LOX IMVI melanoma", "value": "> 100", "unit": "µM"}, {"measurement": "TGI", "setting": "SNB-78 CNS", "value": "> 100", "unit": "µM"}, {"measurement": "TGI", "setting": "KM12 colon", "value": "> 100", "unit": "µM"}, {"measurement": "TGI", "setting": "A549 NSCLC", "value": "> 100", "unit": "µM"}, {"measurement": "TGI", "setting": "RXF 393 renal", "value": 87.9, "unit": "µM"}, {"measurement": "TGI", "setting": "UACC-257 melanoma", "value": "> 100", "unit": "µM"}, {"measurement": "TGI", "setting": "KM20L2 colon", "value": "> 100", "unit": "µM"}, {"measurement": "TGI", "setting": "NCI-H522 lung", "value": 55, "unit": "µM"}, {"measurement": "TGI", "setting": "SK-MEL-28 melanoma", "value": "> 100", "unit": "µM"}, {"measurement": "TGI", "setting": "M14 melanoma", "value": "> 100", "unit": "µM"}, {"measurement": "TGI", "setting": "SNB-75 CNS", "value": "> 100", "unit": "µM"}, {"measurement": "TGI", "setting": "SF-295 CNS", "value": "> 100", "unit": "µM"}, {"measurement": "TGI", "setting": "DMS 114 small cell lung", "value": "> 100", "unit": "µM"}, {"measurement": "TGI", "setting": "SW-620 colon", "value": "> 100", "unit": "µM"}, {"measurement": "TGI", "setting": "SK-OV-3 ovarian", "value": "> 100", "unit": "µM"}, {"measurement": "TGI", "setting": "HCT-116 colon", "value": "> 100", "unit": "µM"}, {"measurement": "TGI", "setting": "UACC-62 melanoma", "value": "> 100", "unit": "µM"}, {"measurement": "TGI", "setting": "SK-MEL-2 melanoma", "value": "> 100", "unit": "µM"}, {"measurement": "TGI", "setting": "K-562 leukemia", "value": "> 100", "unit": "µM"}, {"measurement": "TGI", "setting": "HOP-62 NSCLC", "value": "> 100", "unit": "µM"}, {"measurement": "TGI", "setting": "786-0 renal", "value": "> 100", "unit": "µM"}, {"measurement": "TGI", "setting": "MALME-3M melanoma", "value": "> 100", "unit": "µM"}, {"measurement": "TGI", "setting": "DMS 273 small cell lung", "value": "> 100", "unit": "µM"}, {"measurement": "TGI", "setting": "DLD-1 colon", "value": "> 100", "unit": "µM"}, {"measurement": "TGI", "setting": "HL-60(TB) leukemia", "value": "> 100", "unit": "µM"}, {"measurement": "TGI", "setting": "NCI-H226 lung", "value": "> 100", "unit": "µM"}, {"measurement": "TGI", "setting": "U251 CNS", "value": "> 100", "unit": "µM"}, {"measurement": "TGI", "setting": "SF-268 CNS", "value": "> 100", "unit": "µM"}, {"measurement": "TGI", "setting": "M19-MEL melanoma", "value": "> 100", "unit": "µM"}, {"measurement": "TGI", "setting": "LXFL 529 NSCLC", "value": "> 100", "unit": "µM"}, {"measurement": "TGI", "setting": "SF-539 CNS", "value": "> 100", "unit": "µM"}, {"measurement": "TGI", "setting": "SK-MEL-5 melanoma", "value": "> 100", "unit": "µM"}, {"measurement": "TGI", "setting": "NCI-H460 lung", "value": "> 100", "unit": "µM"}, {"measurement": "TGI", "setting": "MOLT-4 leukemia", "value": "> 100", "unit": "µM"}, {"measurement": "TGI", "setting": "COLO 205 colon", "value": "> 100", "unit": "µM"}, {"measurement": "TGI", "setting": "XF 498 CNS", "value": "> 100", "unit": "µM"}, {"measurement": "TGI", "setting": "IGROV1 ovarian", "value": "> 100", "unit": "µM"}, {"measurement": "TGI", "setting": "OVCAR-3 ovarian", "value": "> 100", "unit": "µM"}, {"measurement": "TGI", "setting": "HCC-2998 colon", "value": "> 100", "unit": "µM"}, {"measurement": "TGI", "setting": "HT29 colon", "value": "> 100", "unit": "µM"}, {"measurement": "TGI", "setting": "UO-31 renal", "value": "> 100", "unit": "µM"}, {"measurement": "TGI", "setting": "NCI-H23 lung", "value": "> 100", "unit": "µM"}, {"measurement": "TGI", "setting": "TK-10 renal", "value": "> 100", "unit": "µM"}]}
